# Measured values: article PMC7587356, “High-Throughput Screening for Inhibitors of the SARS-CoV-2 Protease Using a FRET-Biosensor” (Molecules, 2020)
# Counter-ions that a name gives are not always drawn. Like-named read-outs stand apart in the source and are kept apart here.
# Biological target: SARS-CoV-2 3CLpro (Severe acute respiratory syndrome coronavirus 2, UniProt P0DTD1)
# Assay: biochemical
# Assay type: biochemical
# Set-up: Replicate_1 / Replicate_2 / mean / mean (LOPAC_screen_w_protease): unit not given here
# Conditions: for inhibition at 5 µM: 4 h
# [1] = sheet LOPAC_screen_w_protease, primary screen of LOPAC1280 at 5 µM with protease, mean of the two replicates, read-out: mean
# [2] = sheet LOPAC_screen_w_protease, primary screen of LOPAC1280 at 5 µM with protease, replicate 1, read-out: Replicate_1
# [3] = sheet LOPAC_screen_w_protease, primary screen of LOPAC1280 at 5 µM with protease, replicate 2, read-out: Replicate_2
# [4] = sheet LOPAC_screen_w_protease, primary screen with protease, mean of two replicates
# [5] = sheet LOPAC_screen_w_protease, primary screen with protease, replicate 1
# [6] = sheet LOPAC_screen_w_protease, primary screen with protease, replicate 2
# [7] = LOPAC1280 primary screen with protease, 5 µM compound, replicate 1, read-out: Replicate_1 (LOPAC_screen_w_protease)
# [8] = LOPAC1280 primary screen with protease, 5 µM compound, replicate 2, read-out: Replicate_2 (LOPAC_screen_w_protease)
# [9] = LOPAC1280 primary screen with protease, 5 µM compound, mean of the two replicates
# [10] = sheet LOPAC_screen_w_protease, primary screen with protease, compound at 5 µM, mean of two replicates
# [11] = sheet LOPAC_screen_w_protease, primary screen with protease, compound at 5 µM, replicate 1
# [12] = sheet LOPAC_screen_w_protease, primary screen with protease, compound at 5 µM, replicate 2
# [13] = sheet LOPAC_screen_w_protease, LOPAC1280 primary screen at 5 µM, with protease, mean of the two replicates
# [14] = sheet LOPAC_screen_w_protease, LOPAC1280 primary screen at 5 µM, with protease, replicate 1
# [15] = sheet LOPAC_screen_w_protease, LOPAC1280 primary screen at 5 µM, with protease, replicate 2
# [16] = sheet LOPAC_screen_w_protease, LOPAC1280 at 5 µM, mean of two replicates
# [17] = sheet LOPAC_screen_w_protease, LOPAC1280 at 5 µM, replicate 1
# [18] = sheet LOPAC_screen_w_protease, LOPAC1280 at 5 µM, replicate 2
# [19] = sheet LOPAC_screen_w_protease, LOPAC1280 primary screen with protease, 5 µM compound, mean of the two replicates
# [20] = sheet LOPAC_screen_w_protease, LOPAC1280 primary screen with protease, 5 µM compound, replicate 1
# [21] = sheet LOPAC_screen_w_protease, LOPAC1280 primary screen with protease, 5 µM compound, replicate 2
# [22] = sheet LOPAC_screen_w_protease, LOPAC1280 primary screen with protease, 5 µM compound, mean of the two replicates, read-out: mean
# [23] = sheet LOPAC_screen_w_protease, LOPAC1280 primary screen with protease, 5 µM compound, replicate 1, read-out: Replicate_1
# [24] = sheet LOPAC_screen_w_protease, LOPAC1280 primary screen with protease, 5 µM compound, replicate 2, read-out: Replicate_2
# [25] = sheet LOPAC_screen_w_protease, LOPAC1280 primary screen at 5 µM, with protease, mean of the two replicates, read-out: mean
# [26] = sheet LOPAC_screen_w_protease, LOPAC1280 primary screen at 5 µM, with protease, replicate 1, read-out: Replicate_1
# [27] = sheet LOPAC_screen_w_protease, LOPAC1280 primary screen at 5 µM, with protease, replicate 2, read-out: Replicate_2
# [28] = sheet LOPAC_screen_w_protease, primary screen of LOPAC1280 at 5 µM with protease, mean of the two replicates
# [29] = sheet LOPAC_screen_w_protease, primary screen of LOPAC1280 at 5 µM with protease, replicate 1
# [30] = sheet LOPAC_screen_w_protease, primary screen of LOPAC1280 at 5 µM with protease, replicate 2
compound,measurement,setting,value
CC(=O)Oc1cc(C(C)C)c(OCCN(C)C)cc1C [Moxisylyte hydrochloride],inhibition at 5 µM,[1],3.55%
same,inhibition at 5 µM,[2],4.09%
same,inhibition at 5 µM,[3],3.01%
"O=c1[nH]c2cc(Cl)ccc2c(O)c1-c1cccc(Oc2ccccc2)c1 [L-701,324]",mean,[4],2.464
same,Replicate_1,[5],2.862
same,Replicate_2,[6],2.066
CCCCNc1ccc(C(=O)OCCN(C)C)cc1 [Tetracaine hydrochloride],inhibition at 5 µM,"sheet LOPAC_screen_w_protease, primary screen with protease, 5 µM, mean of two replicates, read-out: mean",-0.191%
same,inhibition at 5 µM,"sheet LOPAC_screen_w_protease, primary screen with protease, 5 µM, replicate 1, read-out: Replicate_1",0.225%
same,inhibition at 5 µM,"sheet LOPAC_screen_w_protease, primary screen with protease, 5 µM, replicate 2, read-out: Replicate_2",-0.607%
CC(C)=CCC/C(C)=C/CC/C(C)=C/CSc1ccccc1C(=O)O [Farnesylthiosalicylic acid],mean,"sheet LOPAC_screen_w_protease, primary screen with protease, 5 µM, mean of two replicates",0.3894
same,Replicate_1,"sheet LOPAC_screen_w_protease, primary screen with protease, 5 µM, replicate 1",1.928
same,Replicate_2,"sheet LOPAC_screen_w_protease, primary screen with protease, 5 µM, replicate 2",-1.149
COc1ccc(CCCOC(Cn2ccnc2)c2ccc(OC)cc2)cc1 (stereo not drawn) [SKF 96365],inhibition at 5 µM,[7],1.52%
same,inhibition at 5 µM,[8],2.09%
same,mean (LOPAC_screen_w_protease),[9],1.802
COc1c2c(nc3ccccc13)OC(C(C)(O)CO)C2 (stereo not drawn) [Dubinidine],mean,[10],2.93
same,Replicate_1,[11],4.833
same,Replicate_2,[12],1.026
Cl.O=C(O)C1CCCN(CCC=C(c2ccccc2)c2ccccc2)C1 (stereo not drawn) [SKF 89976A hydrochloride],mean,[13],0.532
same,Replicate_1,[14],1.548
same,Replicate_2,[15],-0.4841
O=C(O)C1=CCNCC1 [Isoguvacine hydrochloride],inhibition at 5 µM,[7],2.64%
same,inhibition at 5 µM,[8],1.29%
same,mean (LOPAC_screen_w_protease),[9],1.964
CN(C)CCCO[C@@H]1[C@H]2OC(C)(C)O[C@H]2O[C@@H]1[C@H](O)CO [Amiprilose hydrochloride],inhibition at 5 µM,"sheet LOPAC_screen_w_protease, LOPAC1280 at 5 µM, mean of two replicates, read-out: mean",1.08%
same,inhibition at 5 µM,"sheet LOPAC_screen_w_protease, LOPAC1280 at 5 µM, replicate 1, read-out: Replicate_1",1.63%
same,inhibition at 5 µM,"sheet LOPAC_screen_w_protease, LOPAC1280 at 5 µM, replicate 2, read-out: Replicate_2",0.526%
N[C@H](C(=O)O)[C@H]1C[C@@H]1C(=O)O,Replicate_1,,1.266
same,Replicate_2,,1.079
same,mean,,1.172
CC(=O)O[C@H]1C[C@@H]2CC[C@@H]3[C@H](CC[C@@]4(C)[C@H]3C[C@H]([N+]3(C)CCCCC3)[C@@H]4OC(C)=O)[C@@]2(C)C[C@@H]1[N+]1(C)CCCCC1 [Pancuronium bromide],inhibition at 5 µM,[1],3.86%
same,inhibition at 5 µM,[2],2.32%
same,inhibition at 5 µM,[3],5.41%
CC(C)(C)NCC(O)COc1cccc2[nH]c(=O)[nH]c12.Cl (racemic) [(±)-CGP-12177A hydrochloride],mean,[16],1.308
same,Replicate_1,[17],3.897
same,Replicate_2,[18],-1.282
Ceramide,mean,[10],2.999
same,Replicate_1,[11],2.718
same,Replicate_2,[12],3.28
Oligomycin A,mean,[19],6.143
same,Replicate_1,[20],3.7549
same,Replicate_2,[21],8.531
COCCOC(=O)C1=C(C)NC(C)=C(C(=O)OC(C)C)C1c1cccc([N+](=O)[O-])c1 (stereo not drawn) [Nimodipine],inhibition at 5 µM,[22],4.81%
same,inhibition at 5 µM,[23],3.58%
same,inhibition at 5 µM,[24],6.04%
NCCCCNCCCN [Spermidine trihydrochloride],inhibition at 5 µM,[22],4.14%
same,inhibition at 5 µM,[23],3.25%
same,inhibition at 5 µM,[24],5.03%
"N[C@@H](Cc1ccc(O)c(O)c1)C(=O)O [L-3,4-Dihydroxyphenylalanine]",mean,[19],4.21
same,Replicate_1,[20],5.679
same,Replicate_2,[21],2.742
CCc1cccc2c3c([nH]c12)C(CC)(CC(=O)O)OCC3 (stereo not drawn) [Etodolac],inhibition at 5 µM,[25],0.659%
same,inhibition at 5 µM,[26],1.48%
same,inhibition at 5 µM,[27],-0.164%
CC(=N)NCCCC[C@H](N)C(=O)O.Cl [L-N6-(1-Iminoethyl)lysine hydrochloride],mean,[4],2.233
same,Replicate_1,[5],3.474
same,Replicate_2,[6],0.9911
O=C(Cc1ccc(Cl)c(Cl)c1)OCCN1CCCC1.O=C(O)C(=O)O [AC 915 oxalate],mean,[16],1.181
same,Replicate_1,[17],1.4848
same,Replicate_2,[18],0.8765
C[C@@](Cc1ccc(O)c(O)c1)(NN)C(=O)O [S-(-)-Carbidopa],mean (LOPAC screen with protease),"sheet LOPAC_screen_w_protease, primary screen at 5 µM, mean of two replicates",17.4897
same,Replicate_1 (LOPAC screen with protease),"sheet LOPAC_screen_w_protease, primary screen at 5 µM, replicate 1",19.273
same,Replicate_2 (LOPAC screen with protease),"sheet LOPAC_screen_w_protease, primary screen at 5 µM, replicate 2",15.7065
CN1CCc2cccc(Cl)c2CC1 [SKF 86466],inhibition at 5 µM,[25],0.452%
same,inhibition at 5 µM,[26],0.136%
same,inhibition at 5 µM,[27],0.768%
C[N+](C)(C)CC#CCOC(=O)Nc1cccc(Cl)c1.[Cl-] [McN-A-343],mean,[28],3.792
same,Replicate_1,[29],2.713
same,Replicate_2,[30],4.871
"C[N+]1(C)CCc2cc3c(cc2[C@H]1[C@@H]1OC(=O)c2c1ccc1c2OCO1)OCO3.[Br-] [(-)-Bicuculline methbromide, 1(S), 9(R)]",mean,[4],2.342
same,Replicate_1,[5],1.484
same,Replicate_2,[6],3.2
CNCCCC12CCC(c3ccccc31)c1ccccc12 [Maprotiline hydrochloride],inhibition at 5 µM,read-out: Replicate_1,4%
same,inhibition at 5 µM,read-out: Replicate_2,5.55%
same,inhibition at 5 µM,read-out: mean,4.77%
"COc1ccccc1N1CCN(CCCNc2c(C)c(=O)n(C)c(=O)n2C)CC1 [Urapidil, 5-Methyl-]",mean,"sheet LOPAC_screen_w_protease, LOPAC1280 primary screen at 5 µM, with protease, mean of two replicates",-1.384
same,Replicate_1,[14],-1.313
same,Replicate_2,[15],-1.455
CN(C)[C@@H]1C(O)=C(C(N)=O)C(=O)[C@@]2(O)C(O)=C3C(=O)c4c(O)ccc(Cl)c4[C@@H](O)[C@H]3C[C@@H]12 [Demeclocycline hydrochloride],inhibition at 5 µM,[22],4.52%
same,inhibition at 5 µM,[23],7.2%
same,inhibition at 5 µM,[24],1.84%
CC(C)(C)c1o[nH]c(=O)c1CC(N)C(=O)O (stereo not drawn) [ATPA],mean,[13],0.4603
same,Replicate_1,[14],-0.08438
same,Replicate_2,[15],1.005
CC(C)Cc1ccc([C@H](C)C(=O)O)cc1 [S(+)-Ibuprofen],mean (LOPAC_screen_w_protease),"LOPAC1280 primary screen with protease, 5 µM compound, mean of two replicates",1.7003
same,Replicate_1 (LOPAC_screen_w_protease),"LOPAC1280 primary screen with protease, 5 µM compound, replicate 1",1.122
same,Replicate_2 (LOPAC_screen_w_protease),"LOPAC1280 primary screen with protease, 5 µM compound, replicate 2",2.279
O=C(O)CP(=O)(O)O [Phosphonoacetic acid],inhibition at 5 µM,[25],0.854%
same,inhibition at 5 µM,[26],0.755%
same,inhibition at 5 µM,[27],0.954%
CC(=O)[C@H]1CC[C@H]2[C@@H]3CC=C4C[C@@H](OS(=O)(=O)[O-])CC[C@]4(C)[C@H]3CC[C@]12C.[Na+] [Pregnenolone sulfate sodium],mean,[16],1.045
same,Replicate_1,[17],0.04623
same,Replicate_2,[18],2.043
CCCN1CCC[C@@H]2Cc3nc(N)ncc3C[C@H]21.Cl.Cl [Quinelorane dihydrochloride],mean,[19],6.182
same,Replicate_1,[20],6.527
same,Replicate_2,[21],5.838
"N[C@H](C(=O)O)c1cc(O)cc(O)c1 [(S)-3,5-Dihydroxyphenylglycine]",mean,[28],3.456
same,Replicate_1,[29],2.928
same,Replicate_2,[30],3.983
NCCc1c[nH]c2ccccc12 [Tryptamine hydrochloride],inhibition at 5 µM,[25],0.461%
same,inhibition at 5 µM,[26],0.957%
same,inhibition at 5 µM,[27],-0.0349%
Nc1cc(N2CCCCC2)nc(N)[n+]1[O-] [Minoxidil],inhibition at 5 µM,"sheet LOPAC_screen_w_protease, primary screen with protease, compound at 5 µM, mean of two replicates, read-out: mean",2.95%
same,inhibition at 5 µM,"sheet LOPAC_screen_w_protease, primary screen with protease, compound at 5 µM, replicate 1, read-out: Replicate_1",3.92%
same,inhibition at 5 µM,"sheet LOPAC_screen_w_protease, primary screen with protease, compound at 5 µM, replicate 2, read-out: Replicate_2",1.98%
